Our source for the pest or weed control values is US20220289691A1, “5-AMINO-SUBSTITUTED PYRAZOLES AND TRIAZOLES AS PEST CONTROL AGENTS” (Bayer Aktiengesellschaft, priority 2019, published 2022).

Assay [1] relates to Diabrotica balteata. The experiment in a line: Diabrotica balteata spray test. As to conditions: 168 h, beetle larvae on wheat, after 7 days, read-out: efficacy (wheat plant growth); for pest or weed control at 500 g/ha: 500 g/ha (=160 μg/cavity); for pest or weed control at 100 g/ha: 100 g/ha (=32 μg/cavity); for pest or weed control at 125 g/ha: 125 g/ha (=40 μg/cavity). The assay is classed as in vivo. The procedure: Diabrotica balteata—Spray Test Solvent: 78 parts by weight of acetone • • 1.5 parts by weight of dimethylformamide Emulsifier: alkylaryl polyglycol ether
(§1) To produce a suitable active compound formulation, 1 part by weight of active compound is dissolved using the stated parts by weight of solvent and made up with water containing an emulsifier concentration of 1000 ppm until the desired concentration is attained. To produce further test concentrations, the formulation is diluted with emulsifier-containing water.
Pre-swollen wheat grains (Triticum aestivum) are incubated in a multiwell plate filled with agar and a little water for one day (5 seed grains per cavity). The germinated wheat grains are sprayed with an active compound formulation of the desired concentration. Subsequently, each cavity is infected with 10-20 beetle larvae of Diabrotica balteata.
After 7 days, the efficacy in % is determined. 100% means that all wheat plants have grown as in the untreated, uninfected control; 0% means that no wheat plant has grown.

The subject of assay [2] is Spodoptera frugiperda. Description: Spodoptera frugiperda spray test. The assay is classed as in vivo. As to conditions: foliar, 168 h, 100 g/ha, maize leaf discs, after 7 days, read-out: efficacy (caterpillars killed). The procedure: Spodoptera frugiperda—Spray Test Solvent: 78.0 parts by weight of acetone • • 1.5 parts by weight of dimethylformamide Emulsifier: alkylaryl polyglycol ether
as §1
Leaf discs of maize (Zea mays) are sprayed with an active compound formulation of the desired concentration and, after drying, populated with caterpillars of the fall armyworm (Spodoptera frugiperda).
After 7 days, the efficacy in % is determined. 100% means that all the caterpillars have been killed; 0% means that no caterpillar has been killed.

Turning to `CNC(=O)Nc1nc(-c2ccc(NC(=O)N=C3SCC(=O)N3c3ccccc3C(C)C)cc2)nn1-c1ccc(OC(F)(F)F)cc1` [Compound I-030], the pest or weed control at 500 g/ha in assay [1] amounted to 100%. Moreover, in assay [2], the pest or weed control at 100 g/ha came to 100%.

On to `CNc1nc(-c2ccc(C=NN3CCCSC3=Nc3ccccc3C(C)C)cc2)nn1-c1ccc(OC(F)(F)C(F)(F)F)cc1` [Compound I-125, 3-{4-[({2-[(2-isopropylphenyl)imino]-1,3-thiazinan-3-yl}imino)methyl]phenyl}-N-methyl-1-[4-(pentafluoroethoxy)phenyl]-1H-1,2,4-triazol-5-amine], for which the pest or weed control at 100 g/ha in assay [1] and in assay [2] was 100% throughout. On to `CNc1nc(-c2ccc(C=NN=C3SCC(=O)N3c3ccccc3C(C)C)cc2)nn1-c1ccc(OC(F)(F)F)cc1` [Compound I-024], for which, in assay [1], the pest or weed control at 125 g/ha turned out to be 100% and the pest or weed control at 500 g/ha came to 100%. The pest or weed control at 100 g/ha in assay [2] worked out at 100%.

As to `CC(C)c1ccccc1N1C(=O)CSC1=NN=Cc1ccc(-c2nc(NCCC#N)n(-c3ccc(OC(F)(F)F)cc3)n2)cc1` [Compound I-092], the pest or weed control at 100 g/ha in assay [2] is 100%.

`CNc1nc(-c2ccc(C=NN=C3SCC(=O)N3c3ccccc3C(C)C)cc2C#N)nn1-c1ccc(OC(F)(F)F)cc1` [Compound I-124]: the pest or weed control at 100 g/ha in assay [1] and in assay [2] was 100% in each case. On to `COc1ccc(C(C)C)c(N2C(=O)CSC2=NN=Cc2ccc(-c3nc(NCCC#N)n(-c4ccc(OC(F)(F)C(F)(F)F)cc4)n3)cc2)c1` [Compound I-142], for which the pest or weed control at 100 g/ha in assay [2] is 100%. For `CNc1nc(-c2ccc(C=NNC(=S)Nc3cc(C)ccc3C(C)C)cc2)nn1-c1ccc(OC(F)(F)F)cc1` [Compound I-070], the pest or weed control at 100 g/ha in assay [1] and in assay [2] was 100% each time.

Consider `COC(CCNc1nc(-c2ccc(C=NNC(=S)Nc3ccccc3C(C)C)cc2)nn1-c1ccc(OC(F)(F)F)cc1)OC` [Compound I-082], for which the pest or weed control at 100 g/ha in assay [1] and in assay [2] was 100% throughout.

With `CNc1nc(-c2ccc(C=NN=C3SCC(=O)N3c3ccccc3C(C)C)nc2)nn1-c1ccc(OC(F)(F)F)cc1` [Compound I-118], the pest or weed control at 100 g/ha in assay [1] and in assay [2] was 100% each time. For the compound `CC(C)c1ccccc1N1C(=O)CSC1=NC(=O)Nc1ccc(-c2nc(N)n(-c3ccc(OC(F)(F)C(F)(F)F)cc3)n2)cc1` [Compound I-055], the pest or weed control at 100 g/ha was determined as 80% in assay [1] and 100% in assay [2]. Moreover, the pest or weed control at 500 g/ha in assay [1] amounted to 100%. On to `CC(C)c1ccccc1N1C(=O)CSC1=NC(=O)Nc1ccc(-c2nc(NC3CC3)n(-c3ccc(OC(F)(F)F)cc3)n2)cc1` [Compound I-029], for which, in assay [1], the pest or weed control at 125 g/ha turned out to be 100% and the pest or weed control at 500 g/ha was 100%. Also, in assay [2], the pest or weed control at 100 g/ha is 100%. On to `COc1ccc(C(C)C)c(NC(=S)NN=Cc2ccc(-c3nc(NCCO)n(-c4ccc(OC(F)(F)C(F)(F)F)cc4)n3)cc2)c1` [Compound I-134], for which the pest or weed control at 100 g/ha in assay [2] turned out to be 100%. Same read-out and setting: with `COCCNc1nc(-c2ccc(C=NN=C3SCC(=O)N3c3ccccc3C(C)C)cc2)nn1-c1ccc(OC(F)(F)C(F)(F)F)cc1` [Compound I-129] the figure was 100%. Take `CCOC(=O)C(=O)Nc1nc(-c2ccc(NC(=O)N=C3SCC(=O)N3c3ccccc3C(C)C)cc2)nn1-c1ccc(OC(F)(F)F)cc1` [Compound I-037]: in assay [1], the pest or weed control at 100 g/ha was 80% and the pest or weed control at 500 g/ha was determined as 100%. In addition, the pest or weed control at 100 g/ha in assay [2] worked out at 83%. For `CC(C)c1ccccc1NC(=S)NN=Cc1ccc(-c2nc(NS(=O)(=O)C(F)F)n(-c3ccc(OC(F)(F)F)cc3)n2)cc1` [Compound I-028], in assay [2], the pest or weed control at 100 g/ha came to 83%. Still for that read-out and setting: with `COCCNc1nc(-c2ccc(C=NNC(=S)Nc3ccccc3C(C)C)cc2)nn1-c1ccc(OC(F)(F)C(F)(F)F)cc1` [Compound I-132] the figure was 100%; with `CC(C)c1ccccc1NC(=S)NN=Cc1ccc(-c2nc(NCCC#N)n(-c3ccc(OC(F)(F)C(F)(F)F)cc3)n2)cc1` [Compound I-136], 100%. The same measure, in the same setting: with `COCCNc1nc(-c2ccc(C=NN=C3SCC(=O)N3c3cc(OC)ccc3C(C)C)cc2)nn1-c1ccc(OC(F)(F)C(F)(F)F)cc1` [Compound I-130] the figure was 100%; with `CC(C)c1ccccc1NC(=S)NN=Cc1ccc(-c2nc(NCCO)n(-c3ccc(OC(F)(F)F)cc3)n2)cc1` [Compound I-078], 100%.

With `COCCCNc1nc(-c2ccc(NC(=O)N=C3SCC(=O)N3c3ccccc3C(C)C)cc2)nn1-c1ccc(OC(F)(F)F)cc1` [Compound I-081], the pest or weed control at 100 g/ha in assay [2] came out at 100%. Same read-out and setting: next, `CC(=O)Nc1nc(-c2ccc(C=NNC(=S)Nc3c(C)cccc3C)cc2)nn1-c1ccc(OC(F)(F)F)cc1` [Compound I-011]: 100%; `COc1ccc(C(C)C)c(NC(=S)NN=Cc2ccc(-c3nc(NCCC#N)n(-c4ccc(OC(F)(F)C(F)(F)F)cc4)n3)cc2)c1` [Compound I-137]: 100%. Turning to `COCCNc1nc(-c2ccc(NC(=O)N=C3SCC(=O)N3c3ccccc3C(C)C)cc2)nn1-c1ccc(OC(F)(F)C(F)(F)F)cc1` [Compound I-128], the pest or weed control at 100 g/ha in assay [2] came out at 100%. Still for that read-out and setting: with `COCCNc1nc(-c2ccc(C=NN=C3SCC(=O)N3c3ccccc3C(C)C)cc2)nn1-c1ccc(OC(F)(F)F)cc1` [Compound I-076] the figure was 100%; with `CC(C)c1ccccc1N1C(=O)CSC1=NN=Cc1ccc(-c2nc(NC3COC3)n(-c3ccc(OC(F)(F)F)cc3)n2)cc1` [Compound I-053], 100%; with `CNc1nc(-c2ccc(C=NN=C3SCC(=O)N3c3ccccc3C(C)C)c(Cl)c2)nn1-c1ccc(OC(F)(F)F)cc1` [Compound I-115], 100%.

Turning to `COc1ccc(C(C)C)c(N2C(=O)CSC2=NN=Cc2ccc(-c3nc(NCCO)n(-c4ccc(OC(F)(F)C(F)(F)F)cc4)n3)cc2)c1` [Compound I-139], in assay [2], the pest or weed control at 100 g/ha was 100%. For `CCOC(CNc1nc(-c2ccc(C=NNC(=S)Nc3ccccc3C(C)C)cc2)nn1-c1ccc(OC(F)(F)F)cc1)OCC` [Compound I-074], in assay [2], the pest or weed control at 100 g/ha stood at 100%.

On to `CC(C)c1ccccc1N1C(=O)CSC1=NN=Cc1ccc(-c2nc(NC3CCOC3)n(-c3ccc(OC(F)(F)F)cc3)n2)cc1` (centres unmarked) [Compound I-069], for which the pest or weed control at 100 g/ha in assay [2] came to 100%. `CNc1nc(-c2ccc(NC(=O)N=C3SCC(=O)N3c3ccccc3C(C)C)cc2)nn1-c1ccc(OC(F)(F)F)cc1` [Compound I-026]: in assay [1], the pest or weed control at 500 g/ha stood at 80%. Consider `CC(C)c1ccccc1N1C(=O)CSC1=NN=Cc1ccc(-c2nc(NC3CSC3)n(-c3ccc(OC(F)(F)C(F)(F)F)cc3)n2)cc1` [Compound I-101], for which the pest or weed control at 100 g/ha in assay [2] was 83%. Take `COc1ccc(C(C)C)c(N2C(=O)CSC2=NC(=O)Nc2ccc(-c3nc(NCCC#N)n(-c4ccc(OC(F)(F)C(F)(F)F)cc4)n3)cc2)c1` [Compound I-140]: the pest or weed control at 100 g/ha in assay [2] is 100%. Turning to `COCCCNc1nc(-c2ccc(C=NN=C3SCC(=O)N3c3ccccc3C(C)C)cc2)nn1-c1ccc(OC(F)(F)F)cc1` [Compound I-077], the pest or weed control at 100 g/ha in assay [2] is 100%. Consider `COCCNc1nc(-c2ccc(C=NNC(=S)Nc3cc(OC)ccc3C(C)C)cc2)nn1-c1ccc(OC(F)(F)C(F)(F)F)cc1` [Compound I-133], for which, in assay [2], the pest or weed control at 100 g/ha came to 100%.

In the case of `CC(C)c1ccccc1N1C(=O)CSC1=NN=Cc1ccc(-c2nc(NCCO)n(-c3ccc(OC(F)(F)C(F)(F)F)cc3)n2)cc1` [Compound I-138], in assay [2], the pest or weed control at 100 g/ha worked out at 100%. Still for that read-out and setting: with `CNc1nc(-c2ccc(C=NN=C3SCC(=O)N3c3ccccc3C(C)C)cc2C)nn1-c1ccc(OC(F)(F)F)cc1` [Compound I-121] the figure was 100%. The same measure, in the same setting: next, `CC(C)c1ccccc1N1C(=O)CSC1=NC(=O)Nc1ccc(-c2nc(-n3ccnc3)n(-c3ccc(OC(F)(F)F)cc3)n2)cc1` [Compound I-031]: 100%; `CC(C)c1ccccc1N1C(=O)CSC1=NN=Cc1ccc(-c2nc(NCCO)n(-c3ccc(OC(F)(F)F)cc3)n2)cc1` [Compound I-089]: 100%; `CCOCCNc1nc(-c2ccc(C=NN=C3SCC(=O)N3c3ccccc3C(C)C)cc2)nn1-c1ccc(OC(F)(F)F)cc1` [Compound I-059]: 100%. On the same count and under the same terms, next, `CC(C)c1ccccc1N1C(=O)CSC1=NN=Cc1ccc(-c2nc(NCCC#N)n(-c3ccc(OC(F)(F)C(F)(F)F)cc3)n2)cc1` [Compound I-141]: 100%. Regarding `CC(C)c1ccccc1NC(=S)NN=Cc1ccc(-c2nc(NCCO)n(-c3ccc(OC(F)(F)C(F)(F)F)cc3)n2)cc1` [Compound I-135], the pest or weed control at 100 g/ha in assay [2] is 100%. Same read-out and setting: next, `COCCNc1nc(-c2ccc(NC(=O)N=C3SCC(=O)N3c3cc(OC)ccc3C(C)C)cc2)nn1-c1ccc(OC(F)(F)C(F)(F)F)cc1` [Compound I-131]: 100%.
